row,Compound,melting point [°C]
1,CC1=C(C(=O)CS(=O)(=O)NC(C)C)C(c2cccc([N+](=O)[O-])c2)C(C(=O)OC(C)C)=C(C)N1C (configuration not stated),67 to 69
2,CSc1ccc(-c2nn(CC=Cc3ccccc3)c(=O)cc2-c2ccc(Cl)cc2)cc1,109 to 110
3,COc1nc2cc(F)c(Cl)c(N)c2nc1OC,199 to 200
4,O=C(Nc1ccc(F)c(F)c1)C12CC3CC(CC(C3)C1)C2,168 to 170
5,CCC(C)Oc1ccccc1-c1nc2ccc(C(=O)O)cc2c(=O)[nH]1 (configuration not stated),242 to 244
6,OC(CNC1CCC1)c1cc(C(F)(F)F)nc2c(C(F)(F)F)cccc12 (configuration not stated),145
7,CCCC1(CC(=O)O)OC=CC2=C1NC1=C3CCCCC3CCC21 (configuration not stated),78 to 80
8,O=C(O)c1cc(=O)cc(C=Cc2ccc(O)cc2)o1,256
9,Nc1c2c(nc3ccc(Cl)cc13)CCCC2=O,> 260
10,Cc1oc(-c2ccccc2)nc1CCC(=O)c1ccc(C=C2SC(=O)NC2=O)nc1,228 to 230
11,CCn1c(-c2ccc(C(F)(F)F)cc2C(F)(F)F)nc(-c2ccncc2)c1-c1ccc(Cl)cc1,148 to 150
12,Cc1c(CCc2ccc3nc(N)oc3c2)nc2cc(CN)ccn12,218 to 221
13,COc1cc(-c2nc3ccccc3n2Cc2ccccc2Br)cc(OC)c1OC,152
14,CC1C(=O)Oc2cc(N3CCOCC3)c(Cl)cc21 (configuration not stated),103 to 105
15,Cc1nc([C@H](Cc2ccccn2)N(C=O)c2cc3ccccc3[nH]2)n(C)c1-c1ccc(-n2ccnc2)cc1,156 to 157
16,CN1CCN(c2cc3c(cc2F)C(=O)c2nc4ccccc4c(=O)n2-3)CC1,257 to 258
17,CCCc1c(/C=C/c2ccccc2)nc2ccc(C(=O)O)cn2c1=O,250 to 252
18,Cc1ccc2c(c1)OC1(O)c3ccccc3C(=O)C21O (configuration not stated),145 to 147
19,CC(C)(C(N)=O)c1ccc(Br)cc1,139 to 141
20,O=S(=O)(On1nnc2ccccc21)c1cccnc1,98
21,CNC(=O)c1c(NC(=O)c2cc(C(F)(F)F)nn2-c2ncccc2Cl)ccc2cn[nH]c12,190 to 192
22,NC(=O)c1ccc(C2CCCc3cncn32)cc1 (configuration not stated),181 to 183
23,O=C1C(O)=C(C2CCCCC2)C(=O)c2ccccc21,128 to 130
24,CCCCCCCCCCCCCCOc1cccc(C(=O)N(CC(=O)OC)CC(=O)OC)c1,< 23
25,CCN(CC)CCCCCCCCNc1nc(N)nc(-c2cc(Cl)ccc2Cl)n1,101 to 102

row,Compound,melting point [°C]
1,CC(=O)Nc1cccc(C(=O)NC(C)(C)C)c1,194 to 195
2,CCOc1cccc(-c2ccc3c(c2)C=C(C(=O)Nc2ccc(CN(C)C4CCOCC4)cc2)CCS3(=O)=O)c1,192 to 195
3,COc1cc(OCc2nccs2)ccc1/C=C/c1cc(/C=C/c2ccc3cc[nH]c3c2)n[nH]1,229 to 237
4,CC(=O)OC(C)(C(=O)O)c1ccc(-c2ccccc2)c(F)c1 (configuration not stated),125 to 127
5,COC(=O)C(Cc1ccc(OCCn2c(=O)oc3cc(C(O)c4ccccc4)ccc32)cc1)C(=O)OC (configuration not stated),84 to 87
6,COc1ccc2c(c1)CCC(CNC(C)=O)C2 (configuration not stated),96 to 97
7,CC[Si](C#CC1(COCc2ccccc2)OC(n2ccc(=O)[nH]c2=O)C(O)C1OCc1ccccc1)(CC)CC (configuration not stated),119 to 120
8,Cc1ccc(Oc2cccc(-c3cccc(C(=O)NCCC#N)c3)n2)c(C)c1,114 to 115
9,COc1ccc2nc(C(F)(F)F)c(C(=O)O)c(O)c2c1,256
10,Cc1cccc(C(=O)NCC2CC2)c1NC(=O)c1cc(C(F)(F)F)nn1-c1ncccc1Cl,199
11,COc1cc(C(=O)NC2CC(C)(C)N(C)C(C)(C)C2)ccc1-c1cc2cc(Cl)c(Cl)cc2[nH]1,260
12,Nc1cc(O)nc2c(-c3ccncc3)c(-c3ccc(F)cc3)nn12,> 250
13,Cc1c(Cl)cccc1Nc1ncccc1[N+](=O)[O-],134 to 135
14,O=C(Nc1ncco1)C1c2ccccc2Sc2ccccc21,188 to 191
15,COc1ccc(-c2cc(N(C)c3c(C)cc(C)cc3C)nc(C)n2)cc1OC,124 to 125
16,CS(=O)(=O)c1ccc(C(O)C(CF)NC(=O)C(F)F)cc1 (configuration not stated),141 to 142
17,O=[N+]([O-])c1ccc(S(=O)(=O)C2COCC2Br)cc1 (configuration not stated),155 to 157
18,CCOC(=O)CCc1c[nH]c2ccc([N+](=O)[O-])cc12,118 to 121
19,Cc1ccc(-n2nc3c4cc(Cc5ccccc5)ccc4[nH]c(=O)n3c2=O)cc1,299
20,CCOC(=O)c1cn(-c2cc(N(C)C)c(F)cc2F)c2nc(Cl)c(F)cc2c1=O,158 to 163
21,CC(=O)NC[C@H]1CN(c2ccc(N3CCC(O)(CN=[N+]=[N-])CC3)c(F)c2)C(=O)O1,146 to 149
22,COc1cnc(CO)c(C)c1OC,91 to 92
23,Cc1cc(OCc2cnc(-c3ccc(OC(F)(F)F)cc3)nc2C(F)(F)F)ccc1OC(C)(C)C(=O)O,154
24,O=C(Nc1ccccc1)N1C(=O)C2(CCCCC2)N(O)C12CCCCC2,125 to 128
25,COc1cccc2c1NCn1cc(CO)cc1-2,137 to 138

row,Compound,melting point [°C]
1,O=C(Nc1ccc(Cl)cc1)N[C@H]1C[C@H](C(=O)O)Nc2cc(Cl)cc(Cl)c21 (relative stereo),199 to 200
2,O=c1[nH]c2ccc(-c3cccc([N+](=O)[O-])c3)cc2o1,280 to 281
3,FC(F)(F)c1cc(Cl)c(-n2cc(C3CC3(Br)Br)nn2)c(Cl)c1 (configuration not stated),156 to 158
4,CCCCn1c2c(c3cc(OC)c(OC)cc3c1=O)C(=O)c1cc3c(cc1-2)OCO3,280 to 284
5,N#Cc1ccc(N(Cc2ccc(O)c(Cl)c2)n2cnnc2)cc1-c1ccoc1,192 to 193
6,CC(C)(C)c1cc2ncnn2nc1OCCN1CCC(OC(c2ccccc2)c2ccccc2)CC1,133 to 135
7,N=C(N)NC(=O)Cn1c(Cc2ccccc2)ccc1-c1ccccc1,82 to 84
8,CCOC(Cc1ccc(OCCN(C)c2nc3ccccc3o2)cc1)C(N)=S (configuration not stated),46 to 48
9,CSc1nc(-c2ccncc2)n(-c2ccc(C(C)C)cc2)c(=O)c1C#N,173 to 175
10,Cc1nnc2ccc(-c3cccc(NC(=O)C4CCC4)c3)nn12,242 to 245
11,CCCc1cccc(N2CC(=O)N(C)C(=O)N2)c1,112 to 115
12,Cc1ccc(NC(=O)N2C(=S)C3(CCCCC3)NC23CCCCC3)cc1,127 to 129
13,CN(C)C(=O)c1ccc2c(c1)CC(=O)N2,147 to 148
14,"O=C1Nc2c(O)cc(Cl)cc2C(C#CC2CC2)(C(F)(F)F)O1 (single isomer, unassigned; (-))",170 to 172
15,CC1(C)Sc2cc(Cl)ccc2C2=NN(C(=O)Nc3ccc(C(F)(F)F)cc3)CC21 (configuration not stated),200 to 202
16,CC(C)(C)NCC(O)c1cc(Cl)c(NC(=O)NC(C)(C)C)c(Cl)c1 (configuration not stated),167 to 169
17,CC1(C)CC(NC(=O)CCC(C)(c2ccc(O)c(C(C)(C)C)c2)c2ccc(O)c(C(C)(C)C)c2)CC(C)(C)N1,110
18,FCc1cccc(C#CCCn2cc(-c3ccc(F)cc3)nn2)n1,100 to 103
19,COc1ccc(S(=O)(=O)N(C)C)cc1C(=O)NCc1ccc(OCCN(C)C)cc1,99.5 to 100
20,COC(=O)/C(=C/C=C/c1cc2ccccc2o1)OC,108
21,COC(=O)CC1(C)C(=O)N(C)c2ccc(OC)cc21 (configuration not stated),83 to 84
22,CCOC(=O)COc1cc(F)c(-c2nn(C)c(C(F)(F)F)c2Cl)cc1[N+](=O)[O-],95 to 96
23,O=c1[nH]c2cc(C(F)(F)F)ccc2n1CCN1CCN(C(c2ccccc2)c2ccccc2)CC1,164
24,CC[C@H](CC(=O)NC(=O)OC)Nc1ccc(C(F)(F)F)cc1,142
25,CN1C2=CC=CN(CCc3ccc(OCc4ccccc4)cc3)C2=Nc2ccccc2S1(=O)=O,133 to 134

row,Compound,melting point [°C]
1,COC(=O)[C@H](Cc1ccc(NC(=O)c2c(Cl)cccc2Cl)cc1)NC(=S)C1(CCCCS(C)(=O)=O)CCCC1,200 to 202
2,CC1(C)CCc2ccc(Oc3ccc(N)cn3)cc2O1,93 to 94
3,N#Cc1c(Cl)nc(OCC(F)(F)F)nc1N1CCc2ccccc2CC1,165 to 167
4,COC(=O)C(C#N)=Cc1cc2c(cc1C)N(CCOC(C)=O)C(C)(C)CC2C (configuration not stated),134 to 135
5,CC1(C)Oc2ccc(Br)cc2C(Oc2ccc(O)nn2)C1(C)O (configuration not stated),242
6,COC(=O)C1=Cc2cc([N+](=O)[O-])ccc2N(C)CCC1,127 to 129
7,CCNc1cc(Oc2ccc(N)cc2)ncn1,143 to 145
8,O=C(NCc1ccc(Cl)cc1)c1cn2c3c(cc(CN4CCOCC4)cc3c1=O)N=C(NCc1ccccc1)C2,235 to 240
9,COC(=O)c1c(Sc2ccc(OC)cc2)nc(-c2ccccc2)n1Cc1cc2c(cc1Cl)OCO2,161
10,CC(=O)N1c2ccc(O)cc2C(C)=CC1(C)C,214 to 216
11,Cc1nc2cccc(OCC(C)(C)NC(=O)C3CCC3)c2c(N)c1C(=O)O,186 to 190
12,C=CCOc1cc2c(cc1C(C)=O)CCCC2,62 to 63
13,COc1c(C)c(C(=O)c2ccc3[nH]c(=O)n(O)c(=O)c3c2)n2ccccc12,300
14,COC(=O)C(Cc1ccc(O)cc1)c1cc2cc(C#N)ccc2o1 (configuration not stated),110 to 111
15,Fc1cccc(F)c1Cn1c(-c2ccccc2)nc2ccccc21,163
16,COc1ccc(CN(C)CCCOc2ccc(NC(=O)c3cccc4c(=O)c5ccccc5[nH]c34)c(C)c2)cc1OC,145 to 150
17,COc1cc(C(O)(C(F)(F)F)C(F)(F)F)cc(C)c1OCC(=O)O,111 to 113
18,CC(C)OC(=O)n1ncc2cc(C(O)(c3cn(C)c4ccccc34)C(F)(F)F)ccc21 (configuration not stated),105 to 106
19,CCCCC(OC)c1c(C(C)C)nc(C(C)C)c(CO)c1-c1ccc(F)cc1 (configuration not stated),121 to 123
20,Cn1c(COc2ccc(CC3SC(=O)NC3=O)cc2)cc2ccccc21 (configuration not stated),174 to 176
21,Clc1cccc(C(c2ccnc3ccccc23)n2cnnc2)c1 (configuration not stated),203
22,Cc1cc(S)c(C)c(C)c1O,86

# Source: a melting point compilation (Tetko et al.; mined from patent text by program, amines drawn as free bases though some values may be those of a salt)
